According to patent US20250177366A1, “COMPOSITIONS AND METHODS FOR ALLEVIATING PAIN AND REDUCING ADVERSIVENESS OF STIMULI” (UNIVERSITY OF WASHINGTON, priority 2021, published 2025):

What was measured:
Assay type in all cases: in vivo, Zebrafish (Danio rerio)
larval zebrafish [1] = assay: Light/dark preference (phototaxis) assay; conditions: for effect of co-applied drug on AS1-induced preference for the dark: drug + 2.5 μM AS1; for light/dark preference, drug alone: without AS1
Experimental: Following this, whether the effects of AS1 were restricted to somatosensation or were generalizable to other aversive stimuli were tested. Thus, the effects of AS1 on light/dark preference were tested. Zebrafish larvae prefer white light environments to dark environments and this preference is inhibited by anxiolytics, analagous to studies in rodents (Lau et al., Proc. Natl. Acad. Sci. U.S.A 2011; 108:2581-2586; Burgess et al., Curr. Biol. 2010; 20:381-386). To measure light/dark preference, larval zebrafish were placed in a square arena and given the choice between a bright white light and total darkness, and the number of larvae on each side was quantified at 30 second intervals. Five 4-minute trials were performed, where the light and dark sides of the arena were reversed between trials. […] Given the precise control over stimulus luminosity in this assay, the effects of altering the intensity of the dark stimulus were explored next. In this gradient version of the phototaxis assay, larval zebrafish were given the choice between a bright white environment and one of six potential shades of darkness, ranging from light gray to solid black. […] This implies that the valence of non-painful noxious stimuli is precisely encoded in an intensity-dependent manner, and that AS1 exerts its effects in proportion to the intensity of the stimulus.
Light/dark preference (phototaxis) assay. In the light/dark preference assay, randomly-selected 6 dpf larval zebrafish (N of 30 to 40) were carefully pipetted onto a 10 cm square petri dish using a 10 mL pipette pump equipped with a glass wide-bored Pasteur pipet. As much E2 media as possible was carefully removed using the same pipet. For single incubation experiments, 30 mL of 1× solutions of the control or test chemical was added to each petri dish, and fish were incubated for 10 minutes at 28.5° C. For double incubation experiments, 15 mL of 1× solutions containing control (DMSO) or test chemicals was added to the larvae-containing petri dish. Following a ten-minute incubation period, 15 mL of the second incubation solution (1× control or test chemical +/−2× AS1) was added to the petri dish, and the fish were incubated for a second ten minute block. The final concentration of DMSO in all solutions was 1%. In all double-incubation experiments, the final concentration of AS1 was 2.5 μM. These petri dishes were then positioned over a horizontally-oriented computer monitor displaying a PowerPoint presentation. For standard light/dark preference assays, a blank white slide was initially presented for one minute, after which the presentation would automatically advance to a slide in which half of the display was black. The petri dish with larvae was positioned such that exactly half was directly over the dark side, and the other half was directly over the light side. After four minutes, the presentation automatically advanced to a slide in which the black and white halves switched places. A total of five four-minute trials, with the dark/light halves automatically switching position between trials, were recorded. For the gradient phototaxis assay, experiments were performed identically, except that the “dark” half of the powerpoint presentation was one of six shades of gray.
In all experiments, an initial still frame of video was taken during the minute where the blank slide was presented in order to quantify the total number of fish in the experiment. Following this, still frames were taken at 30 second intervals for each trial ([…]), and the number of fish present in the light half of the arena were counted. To generate the graphs that looked at swimming patterns over time in a trial (e.g., FIG. 3D), the average percentage of fish in the light at each time point (T=0, T=30, etc.) was calculated across all five trials. […]

larval zebrafish [2] = assay: AITC aversion assay (chemical attraction/aversion, AITC-infused agarose); conditions: AITC 100 mM in agarose; for effect of co-applied drug on AS1-induced attraction to AITC: drug + AS1 (5 μM; 2.5 μM with SKF and sumanirole); for AITC aversion, drug alone: without AS1
From the text: Whether the effects of AS1 extended beyond noxious temperature sensation or could also impact other somatosensory modalities was next explored. To accomplish this, a chemical attraction/aversion assay where a thin layer of agarose was deposited along the edges of a square arena (Jordi et al., Sci. Adv. 2018; 4:1-15) were adapted. Along one wall, the agarose contained the chemical to be tested, while the other three walls were lined with control agarose. It was anticipated that a chemical gradient would be established as chemical diffused from the agarose into the surrounding water. Larvae were pre-incubated in either vehicle or AS1 and then added to the arena and the distance of each larva from the chemical-infused agarose was measured. In control experiments where all four walls of the arena were lined with agarose only, AS1 and vehicle-treated larvae were dispersed evenly throughout the arena (FIG. 3). […] When the nociceptive chemical AITC (100 mM, 10,000× maximal effective dose) was tested, vehicle-treated larvae swam away from the AITC source.
(§1) Chemical attraction/aversion assays. The agarose attraction/aversion assay was adapted from previously described experiments (Jordi et al., Sci. Adv. 2018; 4:1-15). For the AITC aversion assay, AITC and DMSO were added to molten 0.8% agarose to achieve a final concentration of 100 mM AITC and 2% DMSO. For the AS1 attraction/aversion assay, AS1 and DMSO were added to 0.8% molten agar to achieve final concentrations of 50 mM and 2%, respectively. To construct the test chambers, the lids of 10×10 cm square petri dishes (insert cat #and company) were lined on four sides with either the test (chemical-containing) or plain agarose (300 μL per side) and allowed to solidify. For all experiments, 30-40 randomly selected 6 dpf zebrafish were caught with a 10 mL pipette pump (Bel-Air Products, cat #: 13683C) equipped with a glass wide-bored Pasteur pipet (Fisher Scientific, cat #: 22-037-540) and deposited into a standard 10 cm diameter petri dish (Fisher Scientific, cat #: 07-202-031). As much E2 media as possible was carefully removed using the same pipette. For single incubation experiments, 30 mL of 1× solutions of the control or test chemical was added to each petri dish, and fish were incubated for 10 minutes at 28.5° C. For double incubation experiments, 15 mL of 1× solutions containing control (DMSO) or test chemicals was added to the larvae-containing petri dish. Following a ten minute incubation, 15 mL of the second incubation solution (1× control or test chemical +/−2× AS1) was added to the petri dish, and the fish were incubated for a second ten minute block. The final concentration of DMSO in all solutions was 1%. In all double-incubation experiments, the final concentration of AS1 was 5 μM unless otherwise noted. After completion of the last incubation period, the contents of each petri dish were poured into separate agarose-lined square dishes. Swimming behavior was immediately recorded for 20 minutes using the same high-definition camcorder in the thermal preference assays.

larval zebrafish [3] = assay: Chemical attraction/aversion assay with the test chemical itself as source (inherent attractiveness); conditions: 2 mL in trough of 3D-printed arena; SKF 25 μM; AS1 10 μM-1 mM
From the text: To confirm that AS1 itself was not attractive, the chemical attraction/aversion assay was used. […] Since the assay was modified to accommodate the inability to dissolve SKF into agarose at high concentrations (see Materials and Methods), the inherent attractiveness of AS1 was re-tested using this new format.
as §1, with “Following a ten minute incubation, 15 mL of the second incubation solution (1× control or test chemical +/−2× AS1) was added to the petri dish, and the fish were incubated for a second ten minute block. The final concentration of DMSO in all solutions was 1%. In all double-incubation experiments, the final concentration of AS1 was 5 μM unless otherwise noted. After completion of the last incubation period, the contents of each petri dish were poured into separate agarose-lined square dishes.” left out
For the SKF attraction/aversion assay, custom 10 cm×10 cm plates using clear resin (Formlabs, cat #: RS-F2-GPCL-04) and a Form 3+3D printer (Formlabs, cat #: PKG-F3-WSVC-BASIC) were designed. […] Swimming behavior was then recorded for 20 minutes. […]

larval zebrafish [4] = assay: Thermal preference assay (28.5° C. vs 37.5° C.), non-sensitized; conditions: for effect of co-applied drug on swimming velocity of AS1-treated fish: 28.5 and 37.5° C. zones; for effect of co-applied drug on swimming velocity of AS1-treated fish / effect of co-applied drug on AS1-induced attraction to noxious heat: drug + 5 μM AS1; for effect of co-applied drug on AS1-induced attraction to noxious heat / temperature choice, drug alone: 28.5° C. vs 37.5° C.; for temperature choice, drug alone: without AS1
Experimental: Thermal preference assay. […] Once an entire plate was loaded with fish, the appropriate incubation solution was added. […] Following incubation in all experiments, the choice testing plate was transported to a dual solid-state heat/cool plate (AHP-1200° C. P; Teca) and centered such that half of each arena was positioned over each side of the heat/cool plate. […] Locomotor behavior was recorded using a Canon high-definition video camcorder suspended at a fixed position above the choice testing plate. Each trial was four minutes in duration.
For single-incubation assays (e.g. testing single chemicals), larval zebrafish were caught in 100 μL E2 media and 100 μL of the control (2% DMSO) or test chemical at 2× concentration was added to each well to achieve the final desired concentration. […] The final DMSO concentration in all solutions was 1%.

C=CCN1CCc2c(cc(O)c(O)c2Cl)C(c2ccccc2)C1 (stereo not drawn) [SKF82958]
effect of co-applied drug on AS1-induced preference for the dark (larval zebrafish [1]): reversed dark preference in fish that were treated with AS1
light/dark preference, drug alone (larval zebrafish [1]): slight decrease in the proportion of fish found in the light by itself
effect of co-applied drug on AS1-induced attraction to AITC (larval zebrafish [2]): did block AS1-induced preference to this chemical irritant
AITC aversion, drug alone (larval zebrafish [2]): had little effect upon aversion to AITC
inherent attractiveness of chemical deposited into trough (larval zebrafish [3]): mildly attractive
effect of co-applied drug on swimming velocity of AS1-treated fish (larval zebrafish [4]): reduced the swimming velocity of AS1-treated zebrafish in the 28.5 °C zone
effect of co-applied drug on AS1-induced attraction to noxious heat (larval zebrafish [4]): significantly attenuated the amount of time AS1-treated fish spent at 37.5 °C
temperature choice, drug alone (larval zebrafish [4]): slight potentiation of preference for the 28.5 °C side

CCN1CCCC1CNC(=O)c1cc(S(N)(=O)=O)ccc1OC (stereo not drawn) [sulpiride]
effect of co-applied drug on AS1-induced preference for the dark (larval zebrafish [1]): had no effect
light/dark preference, drug alone (larval zebrafish [1]): had no effect
effect of co-applied drug on AS1-induced attraction to AITC (larval zebrafish [2]): had no effect
AITC aversion, drug alone (larval zebrafish [2]): had no effect
effect of co-applied drug on swimming velocity of AS1-treated fish (larval zebrafish [4]): had no effect
effect of co-applied drug on AS1-induced attraction to noxious heat (larval zebrafish [4]): had no effect
temperature choice, drug alone (larval zebrafish [4]): had no effect

sumanirole maleate
effect of co-applied drug on AS1-induced preference for the dark (larval zebrafish [1]): had no effect
light/dark preference, drug alone (larval zebrafish [1]): had no effect
effect of co-applied drug on AS1-induced attraction to AITC (larval zebrafish [2]): did seem to attenuate AS1-mediated attraction to AITC, but only at higher concentrations
AITC aversion, drug alone (larval zebrafish [2]): had little effect alone in the chemical aversion assay
effect of co-applied drug on AS1-induced attraction to noxious heat (larval zebrafish [4]): had no effect
temperature choice, drug alone (larval zebrafish [4]): had no effect
